Test results published in PMC4767605 (Cancer chemotherapy and pharmacology, 2016).
Values joined by “and” are separate entries in the source; they are usually repeats but may differ in a detail not shown here. Equal entries are not always repeated. Where two headings read alike, the source gives them in different places.

[1] = ASP9853 Lead-in (n=20), single agent
[2] = Cohort 1 (n=6): ASP9853 25 mg + docetaxel 60 mg/m^2
[3] = Cohort 2 (n=4): ASP9853 25 mg + docetaxel 75 mg/m^2
[4] = Cohort 3 (n=3): ASP9853 37.5 mg + docetaxel 60 mg/m^2

## O.O.O=C(/C=C/c1ccc(Cl)cc1)N[C@@H](Cc1ccccn1)C(=O)NCC(=O)N1CCC(Oc2cc(C(F)(F)F)ncn2)CC1 [ASP9853, (2E)-3-(4-chlorophenyl)-N-[(1S)-2-oxo-2-{[2-oxo-2-(4-{[6-(trifluoromethyl)-4-pyrimidinyl]oxy}-1-piperidinyl)ethyl]amino}-1-(2-pyridinylmethyl)ethyl]acrylamide dehydrate]
ASP9853 25 mg + docetaxel 60 mg/m^2
  Toxicity noted in single-patient Cohort 1 (did not meet DLT criteria): Grade 3 neutropenia
ASP9853 + docetaxel
  Changes in liver function tests, vital signs, or electrocardiogram (ECGs): No clinically significant changes from baseline
  Neutropenia during treatment (laboratory evaluation): All patients experienced neutropenia
ASP9853 + docetaxel, all cohorts
  Patients with AEs that led to treatment discontinuation: Three
[1]
  AE potentially related to ASP9853: Anemia; Grade 3/4: 0 n (%)
  AE potentially related to ASP9853: Anemia; Grade All: 0 n (%)
  AE potentially related to ASP9853: Asthenia; Grade 3/4: 0 n (%)
  AE potentially related to ASP9853: Asthenia; Grade All: 1 (5) n (%)
  AE potentially related to ASP9853: Constipation; Grade 3/4: 0 n (%)
  AE potentially related to ASP9853: Constipation; Grade All: 0 n (%)
  AE potentially related to ASP9853: Decreased appetite; Grade 3/4: 0 n (%)
  AE potentially related to ASP9853: Decreased appetite; Grade All: 0 n (%)
  AE potentially related to ASP9853: Diarrhea; Grade 3/4 (only Grade 3): 0 n (%)
  AE potentially related to ASP9853: Diarrhea; Grade All: 0 n (%)
  AE potentially related to ASP9853: Dizziness; Grade 3/4: 0 n (%)
  AE potentially related to ASP9853: Dizziness; Grade All: 0 n (%)
  AE potentially related to ASP9853: Fatigue; Grade 3/4 (only Grade 3): 0 n (%)
  AE potentially related to ASP9853: Fatigue; Grade All: 0 n (%)
  AE potentially related to ASP9853: Febrile neutropenia; Grade 3/4: 0 n (%)
  AE potentially related to ASP9853: Febrile neutropenia; Grade All: 0 n (%)
  AE potentially related to ASP9853: Nausea; Grade 3/4: 0 n (%)
  AE potentially related to ASP9853: Nausea; Grade All: 1(5) n (%)
  AE potentially related to ASP9853: Neutropenia; Grade 3/4: 0 n (%)
  AE potentially related to ASP9853: Neutropenia; Grade All: 0 n (%)
  AE potentially related to ASP9853: Neutrophil count decreased; Grade 3/4: 0 n (%)
  AE potentially related to ASP9853: Neutrophil count decreased; Grade All: 0 n (%)
  AE potentially related to ASP9853: Overall; Grade 3/4: 0 n (%)
  AE potentially related to ASP9853: Overall; Grade All: 7 [35%] n (%) and 7 (35) n (%)
  AE potentially related to ASP9853: Vomiting; Grade 3/4: 0 n (%)
  AE potentially related to ASP9853: Vomiting; Grade All: 1 (5) n (%)
  AE potentially related to ASP9853: White blood cell count decreased; Grade All: 0 n (%)
[2]
  AE potentially related to ASP9853: Anemia; Grade 3/4: 0 n (%)
  AE potentially related to ASP9853: Anemia; Grade All: 1 (17) n (%)
  AE potentially related to ASP9853: Asthenia; Grade 3/4: 0 n (%)
  AE potentially related to ASP9853: Asthenia; Grade All: 0 n (%)
  AE potentially related to ASP9853: Constipation; Grade 3/4: 0 n (%)
  AE potentially related to ASP9853: Constipation; Grade All: 1 (17) n (%)
  AE potentially related to ASP9853: Decreased appetite; Grade 3/4: 0 n (%)
  AE potentially related to ASP9853: Decreased appetite; Grade All: 0 n (%)
  AE potentially related to ASP9853: Diarrhea; Grade 3/4 (only Grade 3): 0 n (%)
  AE potentially related to ASP9853: Diarrhea; Grade All: 1 (17) n (%)
  AE potentially related to ASP9853: Dizziness; Grade 3/4: 0 n (%)
  AE potentially related to ASP9853: Dizziness; Grade All: 0 n (%)
  AE potentially related to ASP9853: Fatigue; Grade 3/4 (only Grade 3): 0 n (%)
  AE potentially related to ASP9853: Fatigue; Grade All: 2 (33) n (%)
  AE potentially related to ASP9853: Febrile neutropenia; Grade 3/4: 0 n (%)
  AE potentially related to ASP9853: Febrile neutropenia; Grade All: 0 n (%)
  AE potentially related to ASP9853: Nausea; Grade 3/4: 0 n (%)
  AE potentially related to ASP9853: Nausea; Grade All: 0 n (%)
  AE potentially related to ASP9853: Neutropenia; Grade 3/4: 1 (17) n (%)
  AE potentially related to ASP9853: Neutropenia; Grade All: 1 (17) n (%)
  AE potentially related to ASP9853: Neutrophil count decreased; Grade 3/4: 0 n (%)
  AE potentially related to ASP9853: Neutrophil count decreased; Grade All: 0 n (%)
  AE potentially related to ASP9853: Overall; Grade 3/4: 2 (33) n (%)
  AE potentially related to ASP9853: Overall; Grade All: 5 (83) n (%)
  AE potentially related to ASP9853: Vomiting; Grade 3/4: 0 n (%)
  AE potentially related to ASP9853: Vomiting; Grade All: 0 n (%)
  AE potentially related to ASP9853: White blood cell count decreased; Grade All: 1 (17) n (%)
Cohort 2
  SAE considered related to ASP9853: diarrhea: 1 n
  SAE considered related to ASP9853: febrile neutropenia: 2 n
[3]
  AE potentially related to ASP9853: Anemia; Grade 3/4: 0 n (%)
  AE potentially related to ASP9853: Anemia; Grade All: 1 (25) n (%)
  AE potentially related to ASP9853: Asthenia; Grade 3/4: 0 n (%)
  AE potentially related to ASP9853: Asthenia; Grade All: 2 (50) n (%)
  AE potentially related to ASP9853: Constipation; Grade 3/4: 0 n (%)
  AE potentially related to ASP9853: Constipation; Grade All: 0 n (%)
  AE potentially related to ASP9853: Decreased appetite; Grade 3/4: 0 n (%)
  AE potentially related to ASP9853: Decreased appetite; Grade All: 1 (25) n (%)
  AE potentially related to ASP9853: Diarrhea; Grade 3/4 (only Grade 3): 1 (25) n (%)
  AE potentially related to ASP9853: Diarrhea; Grade All: 2 (50) n (%)
  AE potentially related to ASP9853: Dizziness; Grade 3/4: 0 n (%)
  AE potentially related to ASP9853: Dizziness; Grade All: 0 n (%)
  AE potentially related to ASP9853: Fatigue; Grade 3/4 (only Grade 3): 1 (25) n (%)
  AE potentially related to ASP9853: Fatigue; Grade All: 3 (75) n (%)
  AE potentially related to ASP9853: Febrile neutropenia; Grade 3/4: 2 (50) n (%)
  AE potentially related to ASP9853: Febrile neutropenia; Grade All: 2 (50) n (%)
  AE potentially related to ASP9853: Nausea; Grade 3/4: 0 n (%)
  AE potentially related to ASP9853: Nausea; Grade All: 2 (50) n (%)
  AE potentially related to ASP9853: Neutropenia; Grade 3/4: 0 n (%)
  AE potentially related to ASP9853: Neutropenia; Grade All: 0 n (%)
  AE potentially related to ASP9853: Neutrophil count decreased; Grade 3/4: 0 n (%)
  AE potentially related to ASP9853: Neutrophil count decreased; Grade All: 0 n (%)
  AE potentially related to ASP9853: Overall; Grade 3/4: 3 (75) n (%)
  AE potentially related to ASP9853: Overall; Grade All: 3 (75) n (%)
  AE potentially related to ASP9853: Vomiting; Grade 3/4: 0 n (%)
  AE potentially related to ASP9853: Vomiting; Grade All: 3 (75) n (%)
  AE potentially related to ASP9853: White blood cell count decreased; Grade All: 0 n (%)
[4]
  AE potentially related to ASP9853: Anemia; Grade 3/4: 0 n (%)
  AE potentially related to ASP9853: Anemia; Grade All: 0 n (%)
  AE potentially related to ASP9853: Asthenia; Grade 3/4: 0 n (%)
  AE potentially related to ASP9853: Asthenia; Grade All: 0 n (%)
  AE potentially related to ASP9853: Constipation; Grade 3/4: 0 n (%)
  AE potentially related to ASP9853: Constipation; Grade All: 1 (33) n (%)
  AE potentially related to ASP9853: Decreased appetite; Grade 3/4: 0 n (%)
